Measurements reported in ChEMBL document CHEMBL3244107, “Synthesis and structure-activity relationships of bestatin analogues, inhibitors of aminopeptidase B” (J Med Chem, 1977).
Converted amounts (≈) assume the structure as drawn.

Experiments:
[1] = Retardation factor, Rf value of the compound using BuOH-AcOH-H20 at 4:1:1 ratio by ninhydrin; format: physicochemical
[2] = Inhibition of leucine aminopeptidase B (unknown origin) using 0.2 mM L-leucine-beta-naphthylamide; set-up: species or system Homo sapiens
Aminopeptidase B = biological target: T1, Aminopeptidase B (Rattus norvegicus, UniProt O09175); experiment: Inhibition of rat liver aminopeptidase B using 0.2 mM […] by colorimetry
T1 sequence (O09175 whole entry): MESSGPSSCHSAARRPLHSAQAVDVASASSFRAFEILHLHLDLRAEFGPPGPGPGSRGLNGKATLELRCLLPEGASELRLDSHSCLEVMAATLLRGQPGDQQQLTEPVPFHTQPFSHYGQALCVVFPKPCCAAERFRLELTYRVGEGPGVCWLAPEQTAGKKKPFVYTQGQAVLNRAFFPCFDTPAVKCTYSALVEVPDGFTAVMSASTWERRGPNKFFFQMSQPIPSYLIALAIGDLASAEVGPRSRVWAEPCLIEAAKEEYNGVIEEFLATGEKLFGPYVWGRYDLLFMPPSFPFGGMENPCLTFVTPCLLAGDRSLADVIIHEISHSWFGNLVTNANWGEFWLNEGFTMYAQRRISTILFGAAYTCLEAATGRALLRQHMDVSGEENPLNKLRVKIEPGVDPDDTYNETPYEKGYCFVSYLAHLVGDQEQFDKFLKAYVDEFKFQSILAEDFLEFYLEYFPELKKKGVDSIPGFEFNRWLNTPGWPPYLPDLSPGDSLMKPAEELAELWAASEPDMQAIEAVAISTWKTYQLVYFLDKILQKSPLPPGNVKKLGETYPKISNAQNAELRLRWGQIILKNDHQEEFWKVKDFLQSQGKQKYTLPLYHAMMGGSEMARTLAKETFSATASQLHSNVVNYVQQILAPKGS

Row | Rf [1] | IC50 [2] [µg/mL] | IC50 (Aminopeptidase B) [µM] | SMILES
1 | 0.47 |  |  | CCCC[C@H](NC(=O)[C@@H](O)[C@H](N)Cc1ccccc1)C(=O)O
2 | 0.49 |  |  | CC(C)C[C@H](NC(=O)[C@@H](O)[C@H](N)CC(C)C)C(=O)O
3 | 0.52 | 2.7 (≈ 8.76 µM) | 0.162 | CC(C)C[C@@H](NC(=O)[C@@H](O)[C@@H](N)Cc1ccccc1)C(=O)O
4 | 0.37 | > 250 | > 811 | CC(C)C[C@@H](NC(=O)[C@H](O)[C@H](N)Cc1ccccc1)C(=O)O
5 | 0.49 | > 250 | > 811 | CC(C)C[C@H](NC(=O)[C@H](O)[C@@H](N)Cc1ccccc1)C(=O)O
6 | 0.48 | > 250 | 438 | CC(C)C[C@@H](NC(=O)[C@H](O)[C@@H](N)Cc1ccccc1)C(=O)O
7 | 0.26 |  |  | N[C@H](Cc1ccccc1)[C@H](O)C(=O)NCC(=O)O
8 | 0.35 |  | 392 | N[C@H](Cc1ccccc1)[C@H](O)C(=O)NCCCC(=O)O
9 | 0.48 |  | 357 | N[C@H](Cc1ccccc1)[C@H](O)C(=O)NCCCCCC(=O)O
10 | 0.25 |  | > 855 | N[C@H](Cc1ccccc1)[C@H](O)C(=O)N1CCC[C@H]1C(=O)O
11 | 0.06 |  | > 773 | NCCCC[C@H](NC(=O)[C@@H](O)[C@H](N)Cc1ccccc1)C(=O)O
12 | 0.27 |  |  | N[C@H](Cc1ccccc1)[C@H](O)C(=O)N[C@@H](CCC(=O)O)C(=O)O
13 | 0.17 |  |  | NC(=O)CC[C@H](NC(=O)[C@@H](O)[C@H](N)Cc1ccccc1)C(=O)O
14 | 0.2 |  | 2.48 | N[C@H](Cc1ccccc1)[C@H](O)C(=O)N[C@@H](CO)C(=O)O
15 | 0.37 |  |  | CSCC[C@H](NC(=O)[C@@H](O)[C@H](N)Cc1ccccc1)C(=O)O
16 | 0.21 |  | 1.01 | C[C@H](NC(=O)[C@@H](O)[C@H](N)Cc1ccccc1)C(=O)O
17 | 0.42 |  |  | CC(C)[C@H](NC(=O)[C@@H](O)[C@H](N)Cc1ccccc1)C(=O)O
18 | 0.41 |  |  | CCC[C@H](NC(=O)[C@@H](O)[C@H](N)Cc1ccccc1)C(=O)O
19 | 0.48 |  | 0.13 | CC[C@H](C)[C@H](NC(=O)[C@@H](O)[C@H](N)Cc1ccccc1)C(=O)O
20 | 0.44 |  |  | N[C@H](Cc1ccccc1)[C@H](O)C(=O)N[C@@H](Cc1ccccc1)C(=O)O
21 | 0.65 |  | 565 | CC(C)CCNC(=O)[C@@H](O)[C@H](N)Cc1ccccc1.Cl
22 | 0.34 |  | 93 | CC(C)C[C@H](NC(=O)[C@@H](O)[C@H](N)Cc1ccccc1)C(=O)NCC(=O)O

Row | Rf [1] | IC50 [2] [µg/mL] | IC50 (Aminopeptidase B) [µM] | SMILES
23 | 0.13 |  | 641 | CC(C)C[C@H](NC(=O)[C@@H](O)CN)C(=O)O
24 | 0.13 |  | > 1150 | CC(C)C[C@H](NC(=O)[C@H](O)CN)C(=O)O
25 | 0.47 |  | 3.5 | CC(C)C[C@H](NC(=O)[C@@H](O)[C@H](N)CC1CCCCC1)C(=O)O
26 | 0.58 |  |  | CC(C)C[C@H](NC(=O)[C@@H](O)[C@H](N)Cc1ccc([N+](=O)[O-])cc1)C(=O)O
27 | 0.25 |  |  | CC(C)C[C@H](NC(=O)[C@@H](O)[C@H](N)Cc1ccc(N)cc1)C(=O)O
28 | 0.23 |  |  | CC(C)C[C@H](NC(=O)[C@H](O)[C@@H](C)N)C(=O)O
29 | 0.27 |  |  | CC(C)C[C@H](NC(=O)[C@@H](O)[C@@H](C)N)C(=O)O
30 | 0.43 |  |  | CC(C)C[C@H](NC(=O)[C@H](O)[C@H](N)CC(C)C)C(=O)O
31 | 0.38 |  |  | CC(C)C[C@H](NC(=O)[C@H](O)[C@H](N)c1ccccc1)C(=O)O
32 | 0.41 |  |  | CC(C)C[C@H](NC(=O)[C@@H](O)[C@H](N)c1ccccc1)C(=O)O
33 | 0.42 |  |  | CC(C)C[C@H](NC(=O)[C@H](O)[C@H](N)Cc1ccc(Cl)cc1)C(=O)O
34 | 0.52 |  |  | CC(C)C[C@H](NC(=O)[C@@H](O)[C@H](N)Cc1ccc(Cl)cc1)C(=O)O
35 | 0.53 |  |  | Cc1ccc(C[C@@H](N)[C@@H](O)C(=O)N[C@@H](CC(C)C)C(=O)O)cc1
36 | 0.58 |  |  | Cc1ccc(C[C@@H](N)[C@H](O)C(=O)N[C@@H](CC(C)C)C(=O)O)cc1
37 | 0.49 | 3.4 (≈ 11 µM) |  | CC(C)C[C@@H](NC(=O)[C@@H](O)[C@H](N)Cc1ccccc1)C(=O)O
38 | 0.34 |  | 141 | N[C@H](Cc1ccccc1)[C@H](O)C(=O)NCCC(=O)O
39 | 0.37 | 0.07 (≈ 0.227 µM) |  | CC(C)C[C@H](NC(=O)[C@@H](O)[C@@H](N)Cc1ccccc1)C(=O)O
40 | 0.52 | 7.5 (≈ 24.3 µM) | 324 | CC(C)C[C@H](NC(=O)[C@H](O)[C@H](N)Cc1ccccc1)C(=O)O
41 | 0.58 |  |  | CCCCCCC(NC(=O)[C@@H](O)[C@H](N)Cc1ccccc1)C(=O)O (mixture of isomers)
42 | 0.46 |  |  | CC(C)C[C@H](NC(=O)C(O)C(N)Cc1ccccc1Cl)C(=O)O (mixture of isomers)
43 | 0.48 | 0.01 (≈ 0.0324 µM) | 0.162 | CC(C)C[C@H](NC(=O)[C@@H](O)[C@H](N)Cc1ccccc1)C(=O)O [UBENIMEX]
